What follows are compounds tested against T1, Human Recombinant Matriptase 2 (Homo sapiens, UniProt Q8IU80) (assay: Matriptase 2 fluorescence-based inhibition assay (Boc-Gln-Ala-Arg-AMC substrate)). Conditions: Ki derived from measured IC50 using Cheng-Prusoff equation; 30 min preincubation, 100 μM substrate, 25° C., pH 7.5; read-out: Mat-2 Ki.
T1 construct: purchased Enzo Life Sciences ALX-201-752-1
T1 sequence (Q8IU80 1-811): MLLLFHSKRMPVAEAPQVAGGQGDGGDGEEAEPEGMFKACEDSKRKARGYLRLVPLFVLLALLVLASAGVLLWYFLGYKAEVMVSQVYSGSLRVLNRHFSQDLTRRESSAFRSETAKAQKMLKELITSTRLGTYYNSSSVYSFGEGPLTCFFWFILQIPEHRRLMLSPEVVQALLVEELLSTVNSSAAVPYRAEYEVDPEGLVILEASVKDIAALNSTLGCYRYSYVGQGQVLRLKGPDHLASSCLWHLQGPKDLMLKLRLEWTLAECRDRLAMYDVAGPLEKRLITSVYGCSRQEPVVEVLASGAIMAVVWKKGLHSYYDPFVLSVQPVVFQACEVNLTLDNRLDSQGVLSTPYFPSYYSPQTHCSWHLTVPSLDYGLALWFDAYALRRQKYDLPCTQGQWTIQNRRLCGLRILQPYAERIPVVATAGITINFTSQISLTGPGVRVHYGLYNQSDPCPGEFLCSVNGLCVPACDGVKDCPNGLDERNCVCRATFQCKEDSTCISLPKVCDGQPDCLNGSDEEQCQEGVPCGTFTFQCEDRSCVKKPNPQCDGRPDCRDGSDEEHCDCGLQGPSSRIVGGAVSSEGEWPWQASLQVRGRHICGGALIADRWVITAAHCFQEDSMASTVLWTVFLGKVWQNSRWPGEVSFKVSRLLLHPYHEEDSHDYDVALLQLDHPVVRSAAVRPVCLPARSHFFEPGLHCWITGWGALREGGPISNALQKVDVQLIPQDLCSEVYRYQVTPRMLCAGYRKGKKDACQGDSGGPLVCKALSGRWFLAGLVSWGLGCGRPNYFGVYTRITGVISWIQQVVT
Format: biochemical
Method: Test compounds were evaluated for their potential to inhibit Human Recombinant Matriptase 2 (in-house and commercial protein from Enzo Life Sciences—cat log—ALX-201-752-1) using fluorescence-based assay. The concentration of Recombinant Matriptase 2 and the substrate used in the assay were: 7 nM (commercial) and 15 nM (In-house Matriptase 2) and 100 μM (Boc-Gln-Ala-Arg-7-amido-4-methyl coumarin hydrobromide—Cat log: B4153-Sigma and I-1550 from Bachem) respectively. The assay buffer used comprised 50 mM TRIS pH 7.5, 150 mM NaCl, 0.01% gelatin (G1393 Sigma). The assay was performed by using 384 well black flat bottom plate from Grenier (Cat log: 781076) at 25° C. The enzyme and the test compound were preincubated for 30 mins, and the plate was read at wavelength Ex: 360/Em:480 nm60 mins after substrate addition. The final assay volume of was 20 μl. Stock solution of compounds were initially prepared in DMSO, which were appropriately diluted for screening to determine IC50 determination (final DMSO conc in the assay was 1%). All the measurements were carried out using the Spectramax M5, Molecular devices. The test compounds were screened at 1 and 10 μM concentrations and IC50 was determined for the interested compounds.
Ki is the binding affinity of an inhibitor. Mat-2 Ki as described herein is the binding affinity of an inhibitor such as a compound as described and provided herein to Mat-2. Mat-2 Ki values are derived from the measured IC50. To determine IC50 values, dose-response curves were generated by plotting percentage inhibition as a function of inhibitor concentration and the data was fitted to a sigmoidal non-linear regression equation (variable slope) using Graph Pad Prism software V7. Mat-2 Ki values as described herein were derived from the IC50 using the Cheng-Prusoff equation, which is understood and appreciated by one the skill in the art. The Mat-2 Ki values of tested compounds as described herein are shown in Table A. Accordingly, the compounds can be used to inhibit matriptase 2 and treat diseases and conditions associated with matriptase 2, such as those described herein.

SMILES | Ki [nM]
C[C@H](O)[C@H](NC(=O)[C@H](CCc1ccccc1)NC(=O)CCc1ccccc1)C(=O)NC(CCCNC(=N)N)C(=O)C(=O)NC(C)(C)C (stereo partly drawn) | ≤ 100
CC(C)(C)NC(=O)C(=O)C(CCCNC(=N)N)NC(=O)C1(NC(=O)[C@H](Cc2cscn2)NC(=O)OCc2ccccc2)CCCC1 (stereo partly drawn) | ≤ 100
C[C@@H](O)[C@H](NC(=O)[C@H](CCc1ccccc1)NC(=O)CCc1ccccc1)C(=O)NC(CCCNC(=N)N)C(=O)C(=O)NCc1cccnc1 (stereo partly drawn) [6-guanidino-3-((2S,3R)-3-hydroxy-2-((S)-4-phenyl-2-(3-phenylpropanamido)butanamido)butanamido)-2-oxo-N-(pyridin-3-ylmethyl)hexanamide] | ≤ 100
C[C@H](O)[C@H](NC(=O)[C@H](Cc1cscn1)NC(=O)OCc1ccccc1)C(=O)N[C@@H](CCCNC(=N)N)C(=O)C(=O)NC(C)(C)C | ≤ 100
C[C@@H](O)[C@H](NC(=O)[C@H](Cc1cscn1)NC(=O)CCc1ccccc1)C(=O)N[C@@H](CCCNC(=N)N)C(=O)C(=O)NC1CC1 | ≤ 100
N=C(N)NCCC[C@H](NC(=O)[C@@H]1C[C@@H](O)CN1C(=O)[C@H](CCc1ccccc1)NC(=O)CCc1ccccc1)C(=O)C(=O)NC1CC1 [(2S,4R)—N—((S)-1-(cyclopropylamino)-6-guanidino-1,2-dioxohexan-3-yl)-4-hydroxy-1-((S)-4-phenyl-2-(3-phenylpropanamido)butanoyl)pyrrolidine-2-carboxamide] | ≤ 100
C[C@@H](O)[C@H](NC(=O)[C@H](CCc1ccccc1)NC(=O)CCc1ccccc1)C(=O)N[C@@H](CCCNC(=N)N)C(=O)C(=O)NC1(C)CC1 [(S)-6-guanidino-3-((2S,3R)-3-hydroxy-2-((S)-4-phenyl-2-(3-phenylpropanamido)butanamido)butanamido)-N-(1-methylcyclopropyl)-2-oxohexanamide] | ≤ 100
CC(C)[C@H](NC(=O)[C@H](Cc1cscn1)NC(=O)CCc1ccccc1)C(=O)N[C@@H](CCCNC(=N)N)C(=O)C(=O)NC1CC1 | ≤ 100
C[C@@H](O)[C@H](NC(=O)[C@H](CCc1ccccc1)NC(=O)CCc1ccccc1)C(=O)N[C@@H](CCCNC(=N)N)C(=O)C(=O)N(C)C | ≥ 1000
N=C(N)NCCC[C@H](NC(=O)[C@@H]1C[C@@H](OCc2ccccc2)CN1C(=O)[C@H](CCc1ccccc1)NC(=O)CCc1ccccc1)C(=O)C(=O)NC1CC1 [(2S,4R)-4-(benzyloxy)-N—((S)-1-(cyclopropylamino)-6-guanidino-1,2-dioxohexan-3-yl)-1-((S)-4-phenyl-2-(3-phenylpropanamido)butanoyl)pyrrolidine-2-carboxamide] | ≤ 100
CCNC(=O)C(=O)C(Cc1cccc(Cl)c1)NC(=O)[C@@H](NC(=O)[C@H](CCc1ccccc1)NC(=O)CCc1ccccc1)[C@@H](C)O (stereo partly drawn) | ≥ 1000
C[C@@H](O)[C@H](NC(=O)C(CCc1ccccc1)NC(=O)CCc1ccccc1)C(=O)NC(Cc1cccc(CN)c1)C(=O)C(=O)NC1CC1 (stereo partly drawn) | 100 to 1000
CC(C)[C@H](NC(=O)[C@H](Cc1cscn1)NC(=O)CCc1ccccc1)C(=O)N[C@@H](CCCNC(=N)N)C(=O)C(=O)NC(C)(C)C | ≤ 100
CO[C@@H](C)C(NC(=O)[C@H](Cc1cscn1)NC(=O)OCc1ccccc1)C(=O)NC(CCCNC(=N)N)C(=O)C(=O)NC(C)(C)C (stereo partly drawn) | ≤ 100
C[C@H](O)[C@H](NC(=O)[C@H](CCc1ccccc1)NC(=O)OCc1ccccc1)C(=O)N[C@@H](CCCNC(=N)N)C(=O)C(=O)NC(C)(C)C | ≤ 100
C[C@@H](O)[C@H](NC(=O)C(CCc1ccccc1)NC(=O)CCc1ccccc1)C(=O)NC(Cc1ccc(N)nc1)C(=O)C(=O)NC1CC1 (stereo partly drawn) | ≥ 1000

Second part, the compound after the results:

Ki [nM] | SMILES
≤ 100 | C[C@@H](O)[C@H](NC(=O)[C@H](CCc1ccccc1)NC(=O)CCc1ccccc1)C(=O)N[C@@H](CCCNC(=N)N)C(=O)C(=O)NC1(c2cccnc2)CC1
≤ 100 | C[C@@H](O)[C@H](NC(=O)[C@H](Cc1cscn1)NC(=O)OCc1ccccc1)C(=O)N[C@@H](CCCNC(=N)N)C(=O)C(=O)NC(C)(C)C
≥ 1000 | CNC(=O)C(O)C(CCCNC(=N)N)NC(=O)[C@@H](NC(=O)[C@H](CCc1ccccc1)NC(=O)CCc1ccccc1)[C@@H](C)O (stereo partly drawn)
≥ 1000 | C[C@@H](O)[C@H](NC(=O)C(CCc1ccccc1)NC(=O)OCc1ccccc1)C(=O)NC(CCCS(C)(=N)=O)C(=O)C(=O)NC(C)(C)C (stereo partly drawn)
≤ 100 | CCNC(=O)C(=O)C(CCCNC(=N)N)NC(=O)[C@@H](NC(=O)[C@H](CCc1ccccc1)NC(=O)CCc1ccccc1)[C@@H](C)O (stereo partly drawn)
≤ 100 | CNC(=O)C(=O)[C@H](CCCNC(=N)N)NC(=O)[C@@H](NC(=O)[C@H](CCc1ccccc1)NC(=O)OCc1ccccc1)[C@@H](C)O
100 to 1000 | C[C@@H](O)[C@H](NC(=O)C(CCc1ccccc1)NC(=O)OCc1ccccc1)C(=O)NC(CCc1ccc(N)nc1)C(=O)C(=O)NC(C)(C)C (stereo partly drawn)
100 to 1000 | CCOC(=O)CNC(=O)C(=O)C(CCCNC(=N)N)NC(=O)[C@@H](NC(=O)C(CCc1ccccc1)NC(=O)CCc1ccccc1)[C@@H](C)O (stereo partly drawn)
≤ 100 | C[C@H](O)[C@H](NC(=O)[C@H](CCc1ccccc1)NC(=O)CCc1ccccc1)C(=O)NC(CCCNC(=N)N)C(=O)C(=O)NC1CC1 (stereo partly drawn)
≤ 100 | CO[C@@H](C)[C@H](NC(=O)C(CCc1ccccc1)NC(=O)OCc1ccccc1)C(=O)NC(CCCNC(=N)N)C(=O)C(=O)NC(C)(C)C (stereo partly drawn)
≤ 100 | C[C@@H](O)[C@H](NC(=O)[C@H](Cc1ccc(F)cc1)NC(=O)OCc1ccccc1)C(=O)NC(CCCNC(=N)N)C(=O)C(=O)NC(C)(C)C (stereo partly drawn)
≤ 100 | C[C@H](O)[C@H](NC(=O)[C@H](CCc1ccccc1)NC(=O)CCc1ccccc1)C(=O)N[C@@H](CCCNC(=N)N)C(=O)C(=O)N[C@@H]1C[C@@H]1F
≤ 100 | C[C@@H](O)[C@H](NC(=O)[C@H](CCc1ccccc1)NC(=O)CCc1ccccc1)C(=O)N[C@@H](CCCNC(=N)N)C(=O)C(=O)NC1CC1 [(S)—N-cyclopropyl-6-guanidino-3-((2S,3R)-3-hydroxy-2-((S)-4-phenyl-2-(3-phenylpropanamido)butanamido)butanamido)-2-oxohexanamide]
≤ 100 | C[C@@H](O)[C@H](NC(=O)[C@H](Cc1cccnc1)NC(=O)OCc1ccccc1)C(=O)NC(CCCNC(=N)N)C(=O)C(=O)NC(C)(C)C (stereo partly drawn)
≤ 100 | CC(C)(C)NC(=O)C(=O)[C@H](CCCNC(=N)N)NC(=O)C1COCCN1C(=O)[C@H](Cc1cscn1)NC(=O)OCc1ccccc1 (stereo partly drawn)
≤ 100 | CC(C)(C)NC(=O)C(=O)[C@H](CCCNC(=N)N)NC(=O)C1C[C@@H](O)CN1C(=O)[C@H](Cc1cscn1)NC(=O)OCc1ccccc1 (stereo partly drawn)
≤ 100 | CC(C)[C@H](NC(=O)[C@H](Cc1cscn1)NC(=O)OCc1ccccc1)C(=O)N[C@@H](CCCNC(=N)N)C(=O)C(=O)NC(C)(C)C
≥ 1000 | C[C@@H](O)[C@H](NC(=O)[C@H](CCc1ccccc1)NC(=O)CCc1ccccc1)C(=O)NC(CCc1nc(N)no1)C(=O)C(=O)NC(C)(C)C (stereo partly drawn)
≤ 100 | CO[C@H](C)[C@H](NC(=O)C(Cc1cscn1)NC(=O)OCc1ccccc1)C(=O)NC(Cc1ccnc(N)c1)C(=O)C(=O)NC(C)(C)C (stereo partly drawn)
≤ 100 | C[C@@H](O)[C@H](NC(=O)[C@H](Cc1cscn1)NC(=O)CCc1ccccc1)C(=O)N[C@@H](CCCNC(=N)N)C(=O)C(=O)NC(C)(C)C
≤ 100 | CNC(=O)C(=O)[C@H](CCCNC(=N)N)NC(=O)[C@@H](NC(=O)[C@H](CCc1ccccc1)NC(=O)CCc1ccccc1)[C@@H](C)O
≤ 100 | C[C@@H](O)[C@H](NC(=O)[C@H](CCc1ccccc1)NC(=O)CCc1ccccc1)C(=O)N[C@@H](CCCNC(=N)N)C(=O)C(N)=O
≤ 100 | CO[C@H](C)[C@H](NC(=O)[C@H](CCc1ccccc1)NC(=O)CCc1ccccc1)C(=O)N[C@@H](CCCNC(=N)N)C(=O)C(=O)NC1CC1

— patent publication US20240317801A1, “PEPTIDOMIMETIC MATRIPTASE 2 INHIBITORS AND USES THEREOF” (Disc Medicine, Inc., priority 2020, published 2024)
